Source: patent publication US12049450B2, “Pyridyloxy-carboxylate derivative and preparation method therefor, herbicidal composition, and use” (Qingdao Kingagroot Chemical Compound Co., Ltd., priority 2018, dated 2024)

Assays:
Assay in all cases: Post-emergence test experiment (greenhouse pot, spray at 2-3 leaf stage)
Assay type in all cases: in vivo
Conditions in all cases: 1000 g/ha; post-emergence spray at 2-3 leaf stage; assessed after 3 weeks; fresh weight inhibition rate
[1] = system: Digitaria sanguinalis
Procedure, shortened: (§1)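 Weed seeds sown in soil-filled pots in greenhouse, sprayed at 2-3 leaf stage (2 weeks after sowing) with compound in acetone/tween-80 plus methyl oleate emulsible concentrate (1.5 L/ha) diluted in water. Fresh-weight growth inhibition scored after 3 weeks on 0-5 scale (5: >85%, 0: <5%).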

[2] = system: Echinochloa crusgalli
Procedure, shortened: as §1

[3] = system: Abutilon theophrasti
Procedure, shortened: as §1

[4] = system: Monochoria vaginalis
Procedure, shortened: as §1

[5] = system: Galium spurium
Procedure, shortened: as §1

Row | Structure (SMILES) | Activity level (growth inhibition rate) Digitaria sanguinalis [1] | Activity level (growth inhibition rate) Echinochloa crusgalli [2] | Activity level (growth inhibition rate) Abutilon theophrasti [3] | Activity level (growth inhibition rate) Monochoria Vaginalis [4] | Activity level (growth inhibition rate) Galium spurium [5]
1 | CC(Oc1nc(F)c(Cl)c(N)c1Cl)C(=O)OCc1cccc(N)c1 (stereo not drawn) [Compound 90] | 5 (Level 5: the growth inhibition rate is greater than 85%) | 5 (Level 5: the growth inhibition rate is greater than 85%) | 5 (Level 5: the growth inhibition rate is greater than 85%) | 5 (Level 5: the growth inhibition rate is greater than 85%) | 5 (Level 5: the growth inhibition rate is greater than 85%)
2 | CC(Oc1nc(F)c(Cl)c(N)c1Cl)C(=O)OCc1ccc(C#N)cc1 (stereo not drawn) [Compound 91] | 5 (Level 5: the growth inhibition rate is greater than 85%) | 5 (Level 5: the growth inhibition rate is greater than 85%) | 5 (Level 5: the growth inhibition rate is greater than 85%) | 5 (Level 5: the growth inhibition rate is greater than 85%) | 5 (Level 5: the growth inhibition rate is greater than 85%)
3 | CSc1cccc(COC(=O)C(C)Oc2nc(F)c(Cl)c(N)c2Cl)c1 (stereo not drawn) [Compound 92] | 5 (Level 5: the growth inhibition rate is greater than 85%) | 5 (Level 5: the growth inhibition rate is greater than 85%) | 5 (Level 5: the growth inhibition rate is greater than 85%) | 5 (Level 5: the growth inhibition rate is greater than 85%) | 5 (Level 5: the growth inhibition rate is greater than 85%)
4 | CC(Oc1nc(F)c(Cl)c(N)c1Cl)C(=O)OCc1ccc(N(C)C)cc1 (stereo not drawn) [Compound 93] | 5 (Level 5: the growth inhibition rate is greater than 85%) | 5 (Level 5: the growth inhibition rate is greater than 85%) | 5 (Level 5: the growth inhibition rate is greater than 85%) | 5 (Level 5: the growth inhibition rate is greater than 85%) | 5 (Level 5: the growth inhibition rate is greater than 85%)
5 | CC(Oc1nc(F)c(Cl)c(N)c1Cl)C(=O)SCc1ccccc1N=[N+]=[N-] (stereo not drawn) [Compound 94] | 5 (Level 5: the growth inhibition rate is greater than 85%) | 5 (Level 5: the growth inhibition rate is greater than 85%) | 5 (Level 5: the growth inhibition rate is greater than 85%) | 5 (Level 5: the growth inhibition rate is greater than 85%) | 5 (Level 5: the growth inhibition rate is greater than 85%)
6 | CC(Oc1nc(F)c(Cl)c(N)c1Cl)C(=O)SCc1ccc(C#CCF)cc1 (stereo not drawn) [Compound 95] | 5 (Level 5: the growth inhibition rate is greater than 85%) | 5 (Level 5: the growth inhibition rate is greater than 85%) | 5 (Level 5: the growth inhibition rate is greater than 85%) | 5 (Level 5: the growth inhibition rate is greater than 85%) | 5 (Level 5: the growth inhibition rate is greater than 85%)
7 | CC(Oc1nc(F)c(Cl)c(N)c1Cl)C(=O)OCc1cccc(OCC(F)(F)F)c1 (stereo not drawn) [Compound 96] | 5 (Level 5: the growth inhibition rate is greater than 85%) | 5 (Level 5: the growth inhibition rate is greater than 85%) | 5 (Level 5: the growth inhibition rate is greater than 85%) | 5 (Level 5: the growth inhibition rate is greater than 85%) | 5 (Level 5: the growth inhibition rate is greater than 85%)
8 | CC(=O)Nc1ccc(CSC(=O)C(C)Oc2nc(F)c(Cl)c(N)c2Cl)cc1 (stereo not drawn) [Compound 97] | 5 (Level 5: the growth inhibition rate is greater than 85%) | 5 (Level 5: the growth inhibition rate is greater than 85%) | 5 (Level 5: the growth inhibition rate is greater than 85%) | 5 (Level 5: the growth inhibition rate is greater than 85%) | 5 (Level 5: the growth inhibition rate is greater than 85%)
9 | COC(=O)c1ccc(COC(=O)C(C)Oc2nc(F)c(Cl)c(N)c2Cl)cc1 (stereo not drawn) [Compound 98] | 5 (Level 5: the growth inhibition rate is greater than 85%) | 5 (Level 5: the growth inhibition rate is greater than 85%) | 5 (Level 5: the growth inhibition rate is greater than 85%) | 5 (Level 5: the growth inhibition rate is greater than 85%) | 5 (Level 5: the growth inhibition rate is greater than 85%)
10 | CC(=O)Cc1ccc(COC(=O)C(C)Oc2nc(F)c(Cl)c(N)c2Cl)cc1 (stereo not drawn) [Compound 99] | 5 (Level 5: the growth inhibition rate is greater than 85%) | 5 (Level 5: the growth inhibition rate is greater than 85%) | 5 (Level 5: the growth inhibition rate is greater than 85%) | 5 (Level 5: the growth inhibition rate is greater than 85%) | 5 (Level 5: the growth inhibition rate is greater than 85%)
11 | CCOCc1cccc(C(C)OC(=O)C(C)Oc2nc(F)c(Cl)c(N)c2Cl)c1 (stereo not drawn) [Compound 100] | 5 (Level 5: the growth inhibition rate is greater than 85%) | 5 (Level 5: the growth inhibition rate is greater than 85%) | 5 (Level 5: the growth inhibition rate is greater than 85%) | 5 (Level 5: the growth inhibition rate is greater than 85%) | 5 (Level 5: the growth inhibition rate is greater than 85%)
12 | CC(Oc1nc(F)c(Cl)c(N)c1Cl)C(=O)OCc1cccc(CC(N)=O)c1 (stereo not drawn) [Compound 101] | 5 (Level 5: the growth inhibition rate is greater than 85%) | 5 (Level 5: the growth inhibition rate is greater than 85%) | 5 (Level 5: the growth inhibition rate is greater than 85%) | 5 (Level 5: the growth inhibition rate is greater than 85%) | 5 (Level 5: the growth inhibition rate is greater than 85%)
